Results on 20 compounds are retold here after patent US11542259B2, “Compounds for the treatment of kinase-dependent disorders” (Exelixis, Inc., priority 2018, dated 2023).

Test [1] has as its target Human Mer (residues R557-E882 with H628Q and R794A) (Homo sapiens (Human), UniProt Q12866). As to the kind of experiment: Human Mer kinase assay (33P radiometric, KinaseProfiler). Format: biochemical. As to conditions: 10 μM ATP.
Test [2] addresses Human Met (residues R974-S1390 with A1209G and V1290L) (Homo sapiens, UniProt P08581). Nature of the test: Human Met kinase assay (33P radiometric, KinaseProfiler). In kind it is biochemical. Conditions: 10 μM ATP, read-out: c-Met IC50.
The target of a further test is Met (Homo sapiens (Human), UniProt P08581). As to the kind of experiment: Met autophosphorylation ELISA in PC-3 cells. In kind it is cell-based. As to conditions: cellular, HGF stimulated, read-out: c-Met IC50. The gist of the method: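 Phospho-Met (panTyr) sandwich ELISA on lysates of PC-3 cells given 100 ng/mL HGF for 10 min after 1 h compound exposure (8-point curve, 0.3% DMSO) following 3 h serum starvation. Normalised to HGF-stimulated DMSO and reference-inhibitor wells; 4-parameter logistic IC50.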

The target of a further test is KDR (Homo sapiens (Human), UniProt P35968). As to the kind of experiment: KDR autophosphorylation ELISA in HUVEC cells. Format: cell-based. As to conditions: cellular, VEGF165 stimulated. The gist of the method: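 Compound pretreatment (1 h, 0.3% DMSO) of serum-starved HUVEC preceded a 5 min pulse of 100 ng/mL VEGF165, after which cells were lysed. Phospho-KDR was quantified by ELISA relative to stimulated and unstimulated controls.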
In general terms: An ELISA detects its analyte on a solid surface through an enzyme-linked reagent.

pIC50: −log10 of the molar value. A value given as a limit tells only on which side of the number the result lay.

Human Mer (residues R557-E882 with H628Q and R794A), sequence (Q12866 557-882, stated change not applied): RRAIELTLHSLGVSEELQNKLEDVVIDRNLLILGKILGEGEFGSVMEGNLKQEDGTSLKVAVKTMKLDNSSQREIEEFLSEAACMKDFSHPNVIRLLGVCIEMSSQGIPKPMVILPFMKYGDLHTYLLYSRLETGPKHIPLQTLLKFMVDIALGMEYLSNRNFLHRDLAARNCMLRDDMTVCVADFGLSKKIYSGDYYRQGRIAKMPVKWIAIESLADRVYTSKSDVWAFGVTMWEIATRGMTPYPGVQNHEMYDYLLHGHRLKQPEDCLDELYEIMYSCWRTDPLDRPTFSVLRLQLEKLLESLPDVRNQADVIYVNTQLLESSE
Met, sequence (P08581 25-1390): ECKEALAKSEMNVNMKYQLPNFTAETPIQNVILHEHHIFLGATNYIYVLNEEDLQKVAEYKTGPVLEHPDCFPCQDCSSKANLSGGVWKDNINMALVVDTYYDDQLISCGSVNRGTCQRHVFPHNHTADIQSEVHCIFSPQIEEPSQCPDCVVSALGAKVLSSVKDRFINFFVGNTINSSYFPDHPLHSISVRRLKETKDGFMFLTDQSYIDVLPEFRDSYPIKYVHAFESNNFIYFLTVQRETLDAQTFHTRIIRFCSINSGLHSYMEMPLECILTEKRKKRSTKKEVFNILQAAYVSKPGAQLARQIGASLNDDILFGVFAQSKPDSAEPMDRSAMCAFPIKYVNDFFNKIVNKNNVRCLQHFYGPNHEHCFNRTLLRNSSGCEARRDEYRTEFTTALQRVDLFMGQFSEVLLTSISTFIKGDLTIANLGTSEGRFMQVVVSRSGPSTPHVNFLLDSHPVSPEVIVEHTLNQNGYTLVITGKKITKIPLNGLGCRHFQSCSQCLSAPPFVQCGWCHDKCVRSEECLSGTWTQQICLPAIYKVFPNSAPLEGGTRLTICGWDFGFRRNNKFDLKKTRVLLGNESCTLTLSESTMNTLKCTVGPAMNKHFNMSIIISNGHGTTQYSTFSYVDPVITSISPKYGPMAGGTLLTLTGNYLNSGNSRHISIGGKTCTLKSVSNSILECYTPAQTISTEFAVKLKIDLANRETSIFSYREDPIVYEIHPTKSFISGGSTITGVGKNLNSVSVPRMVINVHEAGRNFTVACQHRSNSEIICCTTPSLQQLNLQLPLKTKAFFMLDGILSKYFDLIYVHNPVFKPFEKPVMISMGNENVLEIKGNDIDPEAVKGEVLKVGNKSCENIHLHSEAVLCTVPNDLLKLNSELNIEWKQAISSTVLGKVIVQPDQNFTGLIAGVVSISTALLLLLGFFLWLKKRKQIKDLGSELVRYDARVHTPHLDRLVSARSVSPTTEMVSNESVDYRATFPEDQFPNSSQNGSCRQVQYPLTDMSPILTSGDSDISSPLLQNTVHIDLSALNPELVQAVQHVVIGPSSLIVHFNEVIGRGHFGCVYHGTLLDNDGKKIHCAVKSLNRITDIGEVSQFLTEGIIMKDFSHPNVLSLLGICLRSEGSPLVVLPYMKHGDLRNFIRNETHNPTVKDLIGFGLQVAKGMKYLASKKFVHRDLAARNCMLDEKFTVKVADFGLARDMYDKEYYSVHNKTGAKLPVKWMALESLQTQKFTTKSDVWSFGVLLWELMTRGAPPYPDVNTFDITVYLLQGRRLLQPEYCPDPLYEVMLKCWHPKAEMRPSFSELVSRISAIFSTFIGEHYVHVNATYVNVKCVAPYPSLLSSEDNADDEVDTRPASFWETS
KDR, sequence (P35968 20-1356): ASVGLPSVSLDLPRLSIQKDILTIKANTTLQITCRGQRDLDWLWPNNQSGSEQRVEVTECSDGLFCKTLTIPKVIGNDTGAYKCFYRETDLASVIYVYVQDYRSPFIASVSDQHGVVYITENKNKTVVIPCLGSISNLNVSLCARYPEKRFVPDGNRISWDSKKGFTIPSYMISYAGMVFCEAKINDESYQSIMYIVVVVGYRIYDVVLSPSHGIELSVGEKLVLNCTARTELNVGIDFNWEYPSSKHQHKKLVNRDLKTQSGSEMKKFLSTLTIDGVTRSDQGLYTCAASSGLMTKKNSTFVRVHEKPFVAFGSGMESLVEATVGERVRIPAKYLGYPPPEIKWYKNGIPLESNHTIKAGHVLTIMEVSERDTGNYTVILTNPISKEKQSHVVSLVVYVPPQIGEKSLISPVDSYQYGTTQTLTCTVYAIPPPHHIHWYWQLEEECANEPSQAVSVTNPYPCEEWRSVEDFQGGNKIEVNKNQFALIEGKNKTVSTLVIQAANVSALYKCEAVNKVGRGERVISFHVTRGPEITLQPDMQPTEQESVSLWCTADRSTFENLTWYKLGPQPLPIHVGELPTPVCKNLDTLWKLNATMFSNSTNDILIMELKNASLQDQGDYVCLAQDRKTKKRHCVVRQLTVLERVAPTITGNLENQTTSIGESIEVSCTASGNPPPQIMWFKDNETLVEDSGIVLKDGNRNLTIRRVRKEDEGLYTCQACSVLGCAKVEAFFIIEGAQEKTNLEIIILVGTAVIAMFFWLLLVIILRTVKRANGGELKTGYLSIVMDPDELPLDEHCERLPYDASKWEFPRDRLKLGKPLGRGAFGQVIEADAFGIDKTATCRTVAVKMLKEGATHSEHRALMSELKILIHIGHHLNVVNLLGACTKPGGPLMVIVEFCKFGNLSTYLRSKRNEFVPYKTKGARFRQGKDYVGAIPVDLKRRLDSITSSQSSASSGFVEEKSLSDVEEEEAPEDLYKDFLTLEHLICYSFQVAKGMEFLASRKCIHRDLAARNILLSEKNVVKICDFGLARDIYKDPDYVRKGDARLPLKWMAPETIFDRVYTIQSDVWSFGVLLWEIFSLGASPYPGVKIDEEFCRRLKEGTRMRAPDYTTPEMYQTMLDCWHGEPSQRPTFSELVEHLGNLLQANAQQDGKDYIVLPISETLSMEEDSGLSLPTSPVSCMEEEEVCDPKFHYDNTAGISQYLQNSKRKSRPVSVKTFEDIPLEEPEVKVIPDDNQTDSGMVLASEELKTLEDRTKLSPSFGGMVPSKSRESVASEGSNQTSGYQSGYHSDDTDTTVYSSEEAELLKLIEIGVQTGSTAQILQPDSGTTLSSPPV

For orientation: pIC50 means the IC50 on a negative log10 scale, so that one unit is a factor of ten. `COC(=O)c1cc2nccc(Oc3ccc(NC(=O)C4(C(=O)Nc5ccc(F)cc5)CC4)cc3)c2cc1C` [Compound 140, methyl 4-[4-[[1-[(4-fluorophenyl)carbamoyl]cyclopropanecarbonyl]amino]phenoxy]-6-methylquinoline-7-carboxylate]: the pIC50 is no less than 8.00 in test [1], 7.00 to 8.00 in test [2], 7.00 to 8.00 on Met and 7.00 to 8.00 on KDR.

Regarding `NC(=O)c1ccc2nccc(Oc3ccc(NC(=O)C4(C(=O)Nc5ccc(F)cc5)CC4)cc3)c2c1` [Compound 58, 1-N-[4-(6-carbamoylquinolin-4-yl)oxyphenyl]-1-N′-(4-fluorophenyl)cyclopropane-1,1-dicarboxamide], the pIC50 in test [1] was 7.00 to 8.00; in test [2], 7.00 to 8.00; on Met it was 6.52 to 7.00; against KDR, 6.52 to 7.00.

On to `COc1cc2nccc(Oc3ccc(NC(=O)C4(C(=O)Nc5ccc(F)cc5)CC4)cc3)c2cc1C(=O)N1CCC1` [Compound 15, 1-N-[4-[6-(azetidine-1-carbonyl)-7-methoxyquinolin-4-yl]oxyphenyl]-1-N′-(4-fluorophenyl)cyclopropane-1,1-dicarboxamide], for which the pIC50 in test [1] was no less than 8.00; in test [2] it was 7.00 to 8.00; on Met, 6.52 to 7.00; against KDR, less than 6.52.

As to `COC(=O)c1cc2nccc(Oc3ccc(NC(=O)C4(C(=O)Nc5ccc(F)cc5)CC4)cc3)c2cc1OC` [Compound 150, methyl 4-[4-[[1-[(4-fluorophenyl)carbamoyl]cyclopropanecarbonyl]amino]phenoxy]-6-methoxyquinoline-7-carboxylate], the pIC50 in test [1] was no less than 8.00; in test [2] it was no less than 8.00; on Met it was 7.00 to 8.00; at KDR, no less than 8.00.

Regarding `COCCOc1cc2nccc(Oc3ccc(NC(=O)C4(C(=O)Nc5ccc(F)cc5)CC4)cc3)c2cc1C(N)=O` [Compound 103, 1-N-[4-[6-carbamoyl-7-(2-methoxyethoxy)quinolin-4-yl]oxyphenyl]-1-N′-(4-fluorophenyl)cyclopropane-1,1-dicarboxamide], the pIC50 in test [1] is no less than 8.00; in test [2] it was no less than 8.00; on Met it was 7.00 to 8.00; on KDR, no less than 8.00.

With `COc1cc2nccc(Oc3ccc(NC(=O)C4(C(=O)Nc5ccc(F)cc5)CC4)cc3)c2cc1-c1c(C)noc1C` [Compound 184, 1-N-[4-[6-(3,5-dimethyl-1,2-oxazol-4-yl)-7-methoxyquinolin-4-yl]oxyphenyl]-1-N′-(4-fluorophenyl)cyclopropane-1,1-dicarboxamide], the pIC50 was no less than 8.00 in test [1], 7.00 to 8.00 in test [2], 7.00 to 8.00 at Met and less than 6.52 against KDR.

Take `COc1cc2nccc(Oc3ccc(NC(=O)C4(C(=O)Nc5ccc(F)cc5)CC4)cc3)c2cc1-c1nnco1` [Compound 220, 1-N′-(4-Fluorophenyl)-1-N-[4-[7-methoxy-6-(1,3,4-oxadiazol-2-yl)quinolin-4-yl]oxyphenyl]cyclopropane-1,1-dicarboxamide]: the pIC50 in test [1] was no less than 8.00; in test [2], no less than 8.00; at Met it was 7.00 to 8.00; at KDR, no less than 8.00.

As for `CN1CC(NC(=O)c2ccc3nccc(Oc4ccc(NC(=O)C5(C(=O)Nc6ccc(F)cc6)CC5)cc4)c3c2)C1` [Compound 60, 1-N′-(4-fluorophenyl)-1-N-[4-[6-[(1-methylazetidin-3-yl)carbamoyl]quinolin-4-yl]oxyphenyl]cyclopropane-1,1-dicarboxamide], the pIC50 in test [1] was 7.00 to 8.00; in test [2], 7.00 to 8.00; at Met it was 6.52 to 7.00; at KDR, less than 6.52.

Regarding `COC(=O)c1cc2c(Oc3ccc(NC(=O)C4(C(=O)Nc5ccc(F)cc5)CC4)cc3Cl)ccnc2cc1OC` [Compound 128, methyl 4-[2-chloro-4-[[1-[(4-fluorophenyl)carbamoyl]cyclopropanecarbonyl]amino]phenoxy]-7-methoxyquinoline-6-carboxylate], the pIC50 in test [1] is no less than 8.00; in test [2], no less than 8.00; on Met it was 7.00 to 8.00; at KDR, no less than 8.00.

For the compound `COc1cc2nccc(Oc3ccc(NC(=O)C4(C(=O)Nc5ccc(F)cc5)CC4)cc3)c2cc1-c1cccnc1` [Compound 201, 1-N′-(4-Fluorophenyl)-1-N-[4-(7-methoxy-6-pyridin-3-ylquinolin-4-yl)oxyphenyl]cyclopropane-1,1-dicarboxamide], the pIC50 is no less than 8.00 in test [1], no less than 8.00 in test [2], 7.00 to 8.00 at Met and 7.00 to 8.00 against KDR.

For `COC(=O)c1ccc2c(Oc3ccc(NC(=O)C4(C(=O)Nc5ccc(F)cc5)CC4)cc3)ccnc2c1` [Compound 162, methyl 4-[4-[[1-[(4-fluorophenyl)carbamoyl]cyclopropanecarbonyl]amino]phenoxy]quinoline-7-carboxylate], the pIC50 in test [1] is no less than 8.00; in test [2], 7.00 to 8.00; on Met, 6.52 to 7.00; against KDR, 7.00 to 8.00.

Regarding `CNC(=O)c1cc2c(Oc3ccc(NC(=O)C4(C(=O)Nc5ccc(F)cc5)CC4)cc3F)ccnc2cc1OC` [Compound 135, 1-N′-[3-fluoro-4-[7-methoxy-6-(methylcarbamoyl)quinolin-4-yl]oxyphenyl]-1-N-(4-fluorophenyl)cyclopropane-1,1-dicarboxamide], the pIC50 (in test [1]; in test [2]; at Met; at KDR) was no less than 8.00 throughout.

Turning to `NC(=O)c1cc2c(Oc3ccc(NC(=O)C4(C(=O)Nc5ccc(F)cc5)CC4)cc3)ccnc2cc1OCCCN1CCOCC1` [Compound 98, 1-N-[4-[6-carbamoyl-7-(3-morpholin-4-ylpropoxy)quinolin-4-yl]oxyphenyl]-1-N′-(4-fluorophenyl)cyclopropane-1,1-dicarboxamide], the pIC50 (in test [1]; in test [2]; on Met; on KDR) was no less than 8.00 each time.

In the case of `CNC(=O)c1cc2c(Oc3ccc(NC(=O)C4(C(=O)Nc5ccc(F)cc5)CC4)cc3)ccnc2cc1OC` [Compound 8, 1-N′-(4-fluorophenyl)-1-N-[4-[7-methoxy-6-(methylcarbamoyl)quinolin-4-yl]oxyphenyl]cyclopropane-1,1-dicarboxamide], the pIC50 was no less than 8.00 in test [1], no less than 8.00 in test [2], 7.00 to 8.00 on Met and no less than 8.00 against KDR.

`COc1cc2nccc(Oc3ccc(NC(=O)C4(C(=O)Nc5ccc(F)cc5)CC4)cc3F)c2cc1C(N)=O` [Compound 133, 1-N′-[4-(6-carbamoyl-7-methoxyquinolin-4-yl)oxy-3-fluorophenyl]-1-N-(4-fluorophenyl)cyclopropane-1,1-dicarboxamide]: the pIC50 (in test [1]; in test [2]; on Met; on KDR) was no less than 8.00 throughout.

In the case of `COc1cc2nccc(Oc3ccc(NC(=O)C4(C(=O)Nc5ccc(F)cc5)CC4)cc3)c2cc1N1CC(F)(F)C1` [Compound 200, 1-N-[4-[6-(3,3-difluoroazetidin-1-yl)-7-methoxyquinolin-4-yl]oxyphenyl]-1-N′-(4-fluorophenyl)cyclopropane-1,1-dicarboxamide], the pIC50 was no less than 8.00 in test [1], 7.00 to 8.00 in test [2], 7.00 to 8.00 on Met and 7.00 to 8.00 against KDR.

Take `NC(=O)c1cc2c(Oc3ccc(NC(=O)C4(C(=O)Nc5ccc(F)cc5)CC4)cc3)ccnc2cc1F` [Compound 67, 1-N-[4-(6-carbamoyl-7-fluoroquinolin-4-yl)oxyphenyl]-1-N′-(4-fluorophenyl)cyclopropane-1,1-dicarboxamide]: the negative-log IC50 (pIC50) in test [1] was 7.00 to 8.00; in test [2], 7.00 to 8.00; on Met it was 6.52 to 7.00; at KDR, 6.52 to 7.00.

As for `CNC(=O)c1ccc2nccc(Oc3ccc(NC(=O)C4(C(=O)Nc5ccc(F)cc5)CC4)cc3)c2c1` [Compound 59, 1-N′-(4-fluorophenyl)-1-N-[4-[6-(methylcarbamoyl)quinolin-4-yl]oxyphenyl]cyclopropane-1,1-dicarboxamide], the pIC50 in test [1] is 7.00 to 8.00; in test [2] it was 7.00 to 8.00; at Met it was 6.52 to 7.00; against KDR, 6.52 to 7.00.

For `COc1cc2c(Oc3ccc(NC(=O)C4(C(=O)Nc5ccc(F)cc5)CC4)cc3)ccnc2cc1C(N)=O` [Compound 152, 1-N-[4-(7-carbamoyl-6-methoxyquinolin-4-yl)oxyphenyl]-1-N′-(4-fluorophenyl)cyclopropane-1,1-dicarboxamide], the pIC50 in test [1] was no less than 8.00; in test [2], no less than 8.00; on Met, 6.52 to 7.00; on KDR, 6.52 to 7.00.

`COc1cc2nccc(Oc3ccc(NC(=O)C4(C(=O)Nc5ccc(F)cc5)CC4)cc3)c2cc1C(=O)N1CC(O)C1` [Compound 16, 1-N′-(4-fluorophenyl)-1-N-[4-[6-(3-hydroxyazetidine-1-carbonyl)-7-methoxyquinolin-4-yl]oxyphenyl]cyclopropane-1,1-dicarboxamide]: the pIC50 is no less than 8.00 in test [1], no less than 8.00 in test [2], 6.52 to 7.00 at Met and 6.52 to 7.00 against KDR.
